Patent US6451814B1, “Heterocyclic β-3 adrenergic receptor agonists” (Wyeth, priority 2000, dated 2002)
Several values for one entry are separate records, joined by “and”; a condition that tells them apart may be missing. Equal values may be shown once.

Target: T1, human β3-adrenergic receptor (Homo sapiens, UniProt P13945)
T1 construct: Full length β3 AR clones (402 amino acids) containing the last 6 amino acids of hβ3—AR are prepared; expressed in transfected cells; host or cells: CHO cells
Experiment: cAMP response (SPA kit) in CHO cells transfected with human β3 adrenergic receptor
Type: cell-based
Details: for EC50: CHO cells expressing human β3-AR, 10^-9 M to 10^-5 M, 30 min at 37° C., cAMP by SPA, read-out: EC50(β3); for IA(β3): maximal response of compound compared to maximal response of isoproterenol at 10^-5 M, CHO cells, human β3-AR

T1 sequence (P13945 whole entry): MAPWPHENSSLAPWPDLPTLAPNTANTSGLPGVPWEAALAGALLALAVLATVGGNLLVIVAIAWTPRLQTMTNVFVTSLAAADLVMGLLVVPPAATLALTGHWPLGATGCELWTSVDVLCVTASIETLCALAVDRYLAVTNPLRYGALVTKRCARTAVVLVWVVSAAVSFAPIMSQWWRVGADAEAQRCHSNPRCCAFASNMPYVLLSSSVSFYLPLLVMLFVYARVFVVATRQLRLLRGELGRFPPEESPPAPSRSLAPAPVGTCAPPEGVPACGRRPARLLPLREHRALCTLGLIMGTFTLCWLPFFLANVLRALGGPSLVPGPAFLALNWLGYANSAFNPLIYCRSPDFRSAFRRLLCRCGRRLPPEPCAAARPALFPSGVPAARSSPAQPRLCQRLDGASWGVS

Compound | EC50 | IA(β3)
O=C(O)COc1ccc(CNC(=O)N2CCC(Nc3ccc(CCNC[C@H](O)COc4ccc(O)cc4)cc3)CC2)c(F)c1 [Example 86, [3-Fluoro-4-[[[[4-[[4-[2-[[(S)-2-hydroxy-3-(4-hydroxyphenoxy)propyl]amino]ethyl]phenyl]amino]-1-piperidinyl]carbonyl]amino]methyl]phenoxy]acetic Acid] | 127 nM | 1.1
CNC(=O)N1CCC(Nc2ccc(CCNC[C@H](O)COc3ccc(O)cc3)cc2)CC1 [Example 9, 4-(4-{2-[(2S)-2-Hydroxy-3-(4-hydroxy-phenoxy)-propylamino]-ethyl}-phenylamino)-piperidine-1-carboxylic Acid Methylamide] |  | 0.85
CCCCCCCCNC(=O)N1CCC(Oc2ccc(CCNC[C@H](O)COc3ccc(O)cc3)cc2)CC1 [Example 54, 4-[4-(2-{[(2S)-2-Hydroxy-3-(4-hydroxyphenoxy)propyl]amino}ethyl)phenoxy]-N-octyl-1-piperidinecarboxamide] | 1010 nM and 398 nM and 400 nM | 0.7 and 0.78 and 0.51
CCCCCCCCNC(=O)N1CCC(Nc2ccc(CCNC[C@H](O)c3cccc(Cl)c3)cc2)CC1 [Example 36, 4-(4-{2-[(2R)-2-(3-Chloro-phenyl)-2-hydroxy-ethylamino]-ethyl}-phenylamino)-piperidine-1-carboxylic Acid Octylamide] |  | 0.77
O=C(NCc1ccc(Cl)cc1Cl)N1CCC(Nc2ccc(CCNC[C@H](O)COc3ccc(O)cc3)cc2)CC1 [Example 20, 4-(4-{2-[(2S)-2-Hydroxy-3-(4-hydroxy-phenoxy)-propylamino]-ethyl}-phenylamino)-piperidine-1-carboxylic Acid 2,4-dichloro-benzylamide] |  | 0.91
O=C(NCc1ccc(F)cc1F)N1CCC(Nc2ccc(CCNC[C@H](O)COc3ccc(O)cc3)cc2)CC1 [Example 80, 4-(4-{2-[(2S)-2-Hydroxy-3-(4-hydroxy-phenoxy)-propylamino]-ethyl}-phenylamino)-piperidine-1-carboxylic acid 2,4-difluoro-benzylamide] |  | 0.84
4-[(2S)-2-Hydroxy-3-(2-{4-[-(1-methyl-1H-imidazole-4-sulfonyl)-piperidin-4-ylamino]-phenyl}-ethylamino)-propoxy]-phenol [Example 113] | 130 nM | 1
O=C(O)C1CCN(C(=O)N2CCC(Nc3ccc(CCNC[C@H](O)COc4ccc(O)cc4)cc3)CC2)CC1 [Example 62, 1-[4-(4-{2-[(2S)-2-Hydroxy-3-(4-hydroxy-phenoxy)-propylamino]-ethyl}-phenylamino)-piperidine-1-carbonyl]-piperidine-4-carboxylic acid] | 134 nM | 1.05
Oc1ccc(OC[C@@H](O)CNCCc2ccc(NC3CCN(c4nc(-c5ccccc5)cs4)CC3)cc2)cc1 [Example 117, 4-[(2S)-2-Hydroxy-3-(2-{4-[1l-(4-phenyl-thiazol-2-yl)-piperidin-4-ylamino]-phenyl}-ethylamino)-propoxy]-phenol] | 208 nM | 1.1
CCOC(=O)C1CCCN(C(=O)N2CCC(Nc3ccc(CCNC[C@H](O)c4ccc(O)c(NS(C)(=O)=O)c4)cc3)CC2)C1 (stereo partly drawn) [Example 78, 1-[[4-[[4-[2-[[(2R)-2-Hydroxy-2-[4-hydroxy-3-[(methylsulfonyl)amino]phenyl]ethyl]amino]ethyl]phenyl]amino]-1-piperidinyl]carbonyl]-3-piperidine Carboxylic Acid, Ethyl Ester] |  | 1
CCCCCCCCNC(=O)N1CCC(Nc2ccc(CCNC[C@H](O)COc3ccc(N)nc3)cc2)CC1 [Example 5, 4-(4-{2-[(2S)-3-(6-Amino-pyridin-3-yloxy)-2-hydroxy-propylamino]-ethyl}-phenylamino)-piperidine-1-carboxylic Acid Octylamide] |  | 0.68

Results, then the compound that gave them:

EC50 | IA(β3) | Compound
13 nM | 0.97 | CC(=O)Nc1nc(C)c(S(=O)(=O)N2CCC(Nc3ccc(CCNC[C@H](O)c4ccc(O)c(NS(C)(=O)=O)c4)cc3)CC2)s1 [Example 115, N-(5-{[4-(4-{2-[((2R)-2-hydroxy-2-{4-hydroxy-3-[(methylsulfonyl)amino]phenyl}-ethyl)amino]ethyl}anilino)piperidin-1-yl]sulfonyl}-4-methyl-1,3-thiazol-2-yl)acetamide]
69 nM | 0.82 | CS(=O)(=O)Nc1cc([C@@H](O)CNCCc2ccc(NC3CCN(C(=O)N4CCC(C(=O)O)CC4)CC3)cc2)ccc1O [Example 52, 1-[4-(4-{2-[(2R)-2-Hydroxy-2-(4-hydroxy-3-methanesulfonylamino-phenyl)-ethylamino]-ethyl}-phenylamino)-piperidine-1-carbonyl]-piperidine-4-carboxylic Acid]
52 nM | 0.84 | O=C(NCc1ccc(F)cc1)N1CCC(Oc2ccc(CCNC[C@H](O)COc3ccc(O)cc3)cc2)CC1 [Example 56, 4-(4-{2-[(2S)2-Hydroxy-3-(4-hydroxy-phenoxy)-propylamino]-ethyl}-phenoxy)-piperidine-1-carboxylic Acid 4-fluoro-benzylamide]
16 nM | 0.98 | Cc1ccsc1C(=O)N1CCC(Nc2ccc(CCNC[C@H](O)COc3ccc(O)cc3)cc2)CC1 [Example 100, [4-(4-{2-[(2S)-2-Hydroxy-3-(4-hydroxy-phenoxy)-propylamino]-ethyl}-phenylamino)-piperidin-1-yl]-(3-methyl-thiophen-2-yl)-methanone]
90 nM | 1.05 | CC(C)NC(=O)N1CCC(Nc2ccc(CCNC[C@H](O)COc3ccc(O)cc3)cc2)CC1 [Example 11]
21 nM | 0.81 | O=C(NCCc1cccc(F)c1)N1CCC(Nc2ccc(CCNC[C@H](O)COc3ccc(O)cc3)cc2)CC1 [Example 88, 4-(4-{2-[(2S)-2-Hydroxy-3-(4-hydroxy-phenoxy)-propylamino]-ethyl}-phenylamino)-piperidine-1-carboxylic Acid [2-(3-fluoro-phenyl)-ethyl]-amide]
10 nM | 0.63 | Cc1ccsc1C(=O)N1CCC(Nc2ccc(CCNC[C@H](O)COc3cccc4[nH]c(=O)[nH]c34)cc2)CC1 [Example 101, 4-[(2S)-2-Hydroxy-3-(2-{4-[1-(3-methyl-thiophene-2-carbonyl)-piperidin-4-ylamino]-phenyl}-ethylamino)-propoxy]-1,3-dihydro-benzoimidazol-2-one]
40 nM | 0.92 | Cc1sccc1C(=O)N1CCC(S(=O)(=O)c2ccc(CCNC[C@H](O)COc3ccc(O)cc3)cc2)CC1 [Example 107, [4-(4-{2-[(2S)-2-Hydroxy-3-(4-hydroxy-phenoxy)-propylamino]-ethyl}benenesulfonyl)-piperidin-1-yl]-(2-methyl-thiophen-3-yl)-methanone]
93 nM | 0.83 | CCN(CC)C(=O)CCNC(=O)N1CCC(Nc2ccc(CCNC[C@H](O)COc3ccc(O)cc3)cc2)CC1 [Example 89, 4-(4-{2-[(2S)-2-Hydroxy-3-(4-hydroxy-phenoxy)-propylamino]-ethyl}-phenylamino)-piperidine-1-carboxylic Acid (2-diethylcarbamoyl-ethyl)-amide]
7 nM | 1.08 | CCCCCCNC(=O)Nc1ccc(S(=O)(=O)N2CCC(Nc3ccc(CCNC[C@H](O)COc4ccc(O)cc4)cc3)CC2)cc1 [Example 108, 1-Hexyl-3-{4-[4-(4-{2-[(2S)-2-hydroxy-3-(4-hydroxy-phenoxy)-propylamino]-ethyl}-phenylamino)-piperidine-1-sulfonyl]-phenyl}-urea]
4 nM | 0.84 | O=C(NCc1ccc(O)cc1F)N1CCC(Nc2ccc(CCNC[C@H](O)COc3cccc(O)c3)cc2)CC1 [Example 87, 4-(4-{2-[(2S)-2-Hydroxy-3-(3-hydroxy-phenoxy)-propylamino]-ethyl}-phenylamino)-piperidine-1-carboxylic Acid 2-fluoro-4-hydroxy-benzylamide]
53 nM | 0.94 | CN(C(=O)CCNC(=O)N1CCC(Nc2ccc(CCNC[C@H](O)COc3ccc(O)cc3)cc2)CC1)c1ccc(Cl)cc1 [Example 82, 4-(4-{2-[(2S)-2-Hydroxy-3-(4-hydroxy-phenoxy)-propylamino]-ethyl}-phenylamino)-piperidine-1-carboxylic Acid {2-[(4-chloro-phenyl)-methyl-carbamoyl]-ethyl}-amide]
3 nM | 0.82 | O=C(NCc1ccc(F)cc1)N1CCC(Nc2ccc(CCNC[C@H](O)COc3cccc(O)c3)cc2)CC1 [Example 85, 4-(4-{2-[(2S)-2-Hydroxy-3-(3-hydroxy-phenoxy)-propylamino]-ethyl}-phenylamino)-piperidine-1-carboxylic Acid 4-fluoro-benzylamide]
21 nM | 1 | O=C(CCNC(=O)N1CCC(Nc2ccc(CCNC[C@H](O)COc3ccc(O)cc3)cc2)CC1)Nc1ccc(F)cc1 [Example 81, 4-(4-{2-[(2S)-2-Hydroxy-3-(4-hydroxy-phenoxy)-propylamino]-ethyl}-phenylamino)-piperidine-1-carboxylic Acid [2-(4-fluoro-phenylcarbamoyl)-ethyl]-amide]
25 nM | 1.1 | CCOC(=O)c1ccc(N2CCC(Nc3ccc(CCNC[C@H](O)c4ccc(O)c(NS(C)(=O)=O)c4)cc3)CC2)cc1 [Example 120, 4-[4-(4-{2-[(2R)-2-Hydroxy-2-(4-hydroxy-3-methanesulfonylamino-phenyl)-ethylamino]-ethyl}-phenylamino)-piperidin-1-yl]-benzoic Acid Ethyl Ester]
100 nM | 0.81 | O=C(OCc1cc(F)ccc1F)N1CCC(Nc2ccc(CCNC[C@H](O)COc3ccc(O)cc3)cc2)CC1 [Example 122, 4-(4-{2-[(2S)-2-Hydroxy-3-(4-hydroxy-phenoxy)-propylamino]-ethyl}-phenylamino)-piperidine-1-carboxylic Acid 2,5-difluoro-benzyl Ester]
